Data taken from patent US20020037311A1, “Transdermal delivery of lasofoxifene” (priority 2000, published 2002).
“And” between values parts separate entries of the source, which are not always exact repeats. Identical values can stand only once. Like-named read-outs stand apart in the source and are kept apart here.

Key:
[1] = In vitro skin flux, adhesive matrix systems, modified Franz diffusion cells; format: in vitro ADME, human; conditions: for Average Daily Flux of CP-336,156 over 7 Days: Example 1 matrix TSR 58 adhesive/triacetin/CP-336,156 84/10/6% w/w; for Cumulative Permeation of CP-336,156 over 24 Hours, Enhanced 1.5% w/w NaLG: Example 2 matrix Morstik 214, 3% w/w CP-336,156 tartrate salt + 1.5% w/w sodium lauroyl glycolate; for Cumulative Permeation of CP-336,156 over 24 Hours, Unenhanced: Example 2 matrix Morstik 214 water-based adhesive, 3% w/w CP-336,156 tartrate salt, no enhancer; for Enhancement Factor Q24 enhanced/Q24 unenhanced: Example 2 matrix, 1.5% w/w NaLG vs unenhanced
Method: Pressure sensitive adhesive matrix systems prepared according to the teachings of U.S. Pat. No. 5,952,000, incorporated herein by reference. First, the solids content of the adhesive solution (water or organic solvent based) was determined by placing a known weight of solution in a weighed aluminum dish and evaporating the solvents overnight in a 70. degree. C. convection oven. The solid adhesive content of the solution was calculated by dividing the adhesive solid weight after drying by the initial total solution weight. Next, a weighed quantity of adhesive solution was added to a glass bottle and the drug substance, permeation enhancer, and other excipients were weighed and added to the adhesive solution in a quantity necessary to achieve the desired dry matrix film composition. The solution containing the adhesive polymer, drug substance, and other excipients as necessary was then mixed overnight. After mixing, approximately 8 ml of the solution was dispensed on a silanized polyester release liner and film cast using a casting knife with a gap size appropriate to achieve a final dried thickness of approximately 0.05 mm. The cast film was dried in a 70° C. convection oven until all solvents had evaporated to yield a dried matrix (15 minutes for organic solvent based adhesives, 30 minutes for water emulsion based adhesives). Finally, an 0.08 mm thick occlusive polyethylene backing film was laminated onto the dried adhesive matrix, and these systems were then used to conduct in vitro skin flux experiments as described below.
(§1) In vitro skin flux studies were conducted using human cadaver epidermal membrane in modified Franz non-jacketed diffusion cells. The epidermal membrane (stratum corneum and epidermis) was separated from whole skin (epidermal membrane and dermis) by the method of Kligman and Christopher (Arch. Dermatol. 88:702 (1963)). This method involves the exposure of the full-thickness skin to water at 60.degree C. for a time period of 60 seconds. After this period, the epidermal membrane was gently peeled off the dermis and stored for later use in aluminum foil at −5° C.
Prior to each permeation experiment with a matrix system, the matrix system was cut into a circular sample of 0.7 cm^2 area and the silanized release liner was removed. The adhesive was affixed to the stratum corneum side of the thawed epidermal membrane which was then cut to an appropriate size and clamped in place between the two halves of the diffusion cell with the stratum corneum facing the donor compartment. The receiver compartment was filled with water or an aqueous solution appropriate to maintain sink conditions for the drug. All receiver solutions included 0.02% (w/w) sodium azide (NaN3) to inhibit bacterial growth. The diffusion cell was placed in a temperature controlled circulating water bath calibrated to maintain the surface temperature of the skin at 32° C. The receiver compartment was constantly stirred by a magnetic stir-bar in the receiver compartment agitated by a magnetic stirring module placed under the water bath.
(§2) The following sampling procedure was used for all dosage forms. At predetermined sampling time points, the entire contents of the receiver compartment were collected for drug quantitation and the receiver compartment was filled with fresh solution, taking care to eliminate any air bubbles at the skin/solution interface. […]

[2] = In vitro skin flux, hydroalcoholic gels (liquid reservoir), finite occluded dose, modified Franz diffusion cells; format: in vitro ADME, human; conditions: for Average Daily Flux of CP-336,156 over 7 Days: Example 3 gel EtOH/H2O/Gly/GMO/ML 50/15/30/2.5/2.5% v/v, CP-336,156 tartrate salt 2 mg/ml; for Average Daily Flux of CP-336,156 over 6 Days: Example 4 gel EtOH/H2O/Gly/GMO/LA 30/38/30/1/1% v/v (two-phase dispersion); for Average Daily Flux of CP-336,156 over 6 Days / Average Daily flux over 7 Days, Unenhanced 0% GMO / Average Daily flux over 7 Days, 0.03% GMO / Average Daily flux over 7 Days, 0.06% GMO / Average Daily flux over 7 Days, 0.12% GMO: CP-336,156 tartrate salt 6 mg/ml; for Average Daily flux over 7 Days, Unenhanced 0% GMO: Example 5 gel EtOH/IPA/H2O/Gly 26.25/8.75/35/30% v/v; for Average Daily flux over 7 Days, 0.03% GMO / Average Daily flux over 7 Days, 0.06% GMO / Average Daily flux over 7 Days, 0.12% GMO: Example 5 gel EtOH/IPA/H2O/Gly; for Average Daily flux over 7 Days, 0.03% GMO: 0.03% v/v glycerol monooleate; for Average Daily flux over 7 Days, 0.06% GMO: 0.06% v/v glycerol monooleate; for Average Daily flux over 7 Days, 0.12% GMO: 0.12% v/v glycerol monooleate (cloudy dispersion); for E = Enhancement Factor = Average Daily Flux from Enhanced Formulation/Average Daily Flux from Unenhanced Control: Example 5 gel
Method: Hydroalcoholic gels were prepared on a 10 ml scale as follows. Ethyl alcohol (190 proof ethanol), water, glycerin, enhancer and drug were combined in the appropriate proportions and mixed for several hours. The gelling agent (hydroxypropylcellulose) was added and the solution was mixed briefly at high shear, then mixed at low shear until a gel was formed.
as §1
Permeation experiments with hydroalcoholic gels were performed using finite occluded doses. The occluded dose is an appropriate in vitro model for the application of a transdermal patch drug delivery system containing a liquid or gel reservoir.
Occluded dosing experiments were set-up according to the following procedure. Prior to skin permeation experiments, the epidermal membrane was cut to an appropriate size and placed between the two halves of the diffusion cell with the epidermal side facing the receiver compartment. The receiver compartment was filled with an appropriate solution then the diffusion cell was placed in a circulating water bath calibrated to maintain the temperature of the skin surface at 32° C. and allowed to hydrate overnight. After hydration, a sample of the gel (75 µl) was pipetted into a cavity created by placing a polyethylene washer over the stratum corneum surface. This cavity was covered with an occlusive backing film which was clamped in place.
as §2

[3] = ovariectomized rats; cited from earlier work
[4] = postmenopausal women; cited from earlier work
[5] = female and male rats; cited from earlier work
[6] = male rats; cited from earlier work
[7] = compared with estradiol therapy; cited from earlier work
[8] = second skin source (name not given), 5 cells
[9] = third skin source (name not given), 5 cells

Oc1ccc2c(c1)CC[C@H](c1ccccc1)[C@@H]2c1ccc(OCCN2CCCC2)cc1 [CP-336,156, lasofoxifene]
Average Daily Flux of CP-336,156 over 7 Days ([1]; All Skins, Mean ± SEM): 8.6 ± 1.2 µg/cm²/day | Average Daily Flux of CP-336,156 over 7 Days ([1]; Skin 1B, 4 diffusion cells): 5.7 ± 0.8 µg/cm²/day | Average Daily Flux of CP-336,156 over 7 Days ([1]; Skin 1C, 8 diffusion cells): 9.2 ± 2.9 µg/cm²/day | Average Daily Flux of CP-336,156 over 7 Days ([1]; Skin 1D, 4 diffusion cells): 13.4 ± 7.8 µg/cm²/day | Average Daily Flux of CP-336,156 over 7 Days ([1]; Skin 1E, 4 diffusion cells): 10.2 ± 3.4 µg/cm²/day | Average Daily Flux of CP-336,156 over 7 Days ([1]; Skin 1F, 4 diffusion cells): 5.1 ± 1.1 µg/cm²/day | Average Daily Flux of CP-336,156 over 7 Days ([1]; Skin 1G, 4 diffusion cells): 11.4 ± 2.4 µg/cm²/day | Average Daily Flux of CP-336,156 over 7 Days ([1]; Skin IA, 7 diffusion cells): 5.5 ± 3.4 µg/cm²/day | Cumulative Permeation of CP-336,156 over 24 Hours, Enhanced 1.5% w/w NaLG ([1]; All Skins Mean ± SEM): 1.42 ± 1.05 μg/cm^2/24 h | Cumulative Permeation of CP-336,156 over 24 Hours, Enhanced 1.5% w/w NaLG ([1]; Skin 2A, 5 cells): 0.30 ± 0.12 μg/cm^2/24 h | Cumulative Permeation of CP-336,156 over 24 Hours, Enhanced 1.5% w/w NaLG [1, 8]: 3.51 ± 0.93 μg/cm^2/24 h | Cumulative Permeation of CP-336,156 over 24 Hours, Enhanced 1.5% w/w NaLG [1, 9]: 0.46 ± 0.16 μg/cm^2/24 h | Cumulative Permeation of CP-336,156 over 24 Hours, Unenhanced ([1]; All Skins Mean ± SEM): 0.99 ± 0.85 μg/cm^2/24 h | Cumulative Permeation of CP-336,156 over 24 Hours, Unenhanced ([1]; Skin 2A, 5 cells): 0.13 ± 0.09 μg/cm^2/24 h | Cumulative Permeation of CP-336,156 over 24 Hours, Unenhanced [1, 8]: 2.70 ± 1.08 μg/cm^2/24 h | Cumulative Permeation of CP-336,156 over 24 Hours, Unenhanced [1, 9]: 0.15 ± 0.09 μg/cm^2/24 h | Enhancement Factor Q24 enhanced/Q24 unenhanced ([1]; All Skins Mean ± SEM): 2.2 and 2.21 ± 0.51 | Enhancement Factor Q24 enhanced/Q24 unenhanced ([1]; Skin 2A): 2.28 | Enhancement Factor Q24 enhanced/Q24 unenhanced ([1]; second skin source (name not given)): 1.30 | Enhancement Factor Q24 enhanced/Q24 unenhanced ([1]; third skin source (name not given)): 3.06 | Average Daily Flux of CP-336,156 over 7 Days ([2]; All Skins, Mean ± SEM): 21.6 ± 2.3 ug/cm^2/day | Average Daily Flux of CP-336,156 over 7 Days ([2]; Skin 3A, 8 cells): 174 ± 7.7 ug/cm^2/day | Average Daily Flux of CP-336,156 over 7 Days ([2]; Skin 3B, 4 cells): 15.3 ± 8.7 ug/cm^2/day | Average Daily Flux of CP-336,156 over 7 Days ([2]; Skin 3C, 8 cells): 23.9 ± 11.0 ug/cm^2/day | Average Daily Flux of CP-336,156 over 7 Days ([2]; Skin 3D, 4 cells): 27.9 ± 2.2 ug/cm^2/day | Average Daily Flux of CP-336,156 over 7 Days ([2]; Skin 3E, 4 cells): 21.2 ± 9.9 ug/cm^2/day | Average Daily Flux of CP-336,156 over 7 Days ([2]; Skin 3F, 4 cells): 15.4 ± 7.2 ug/cm^2/day | Average Daily Flux of CP-336,156 over 7 Days ([2]; Skin 3G, 4 cells): 30.3 ± 4.9 ug/cm^2/day | Average Daily Flux of CP-336,156 over 6 Days ([2]; All Skins, Mean ± SEM): 38.3 ± 3.3 ug/cm^2/day | Average Daily Flux of CP-336,156 over 6 Days ([2]; Skin 4A, 5 cells): 42.4 ± 15.5 ug/cm^2/day | Average Daily Flux of CP-336,156 over 6 Days ([2]; Skin 4B, 5 cells): 36.3 ± 5.2 ug/cm^2/day | Average Daily Flux of CP-336,156 over 6 Days ([2]; Skin 4C, 5 cells): 36.2 ± 14.9 ug/cm^2/day | Average Daily flux over 7 Days, Unenhanced 0% GMO ([2]; All Skins): 11.8 ug/cm^2/24 h | Average Daily flux over 7 Days, Unenhanced 0% GMO ([2]; Skin 5A, n = 2-5 cells): 6.4 ug/cm^2/24 h | Average Daily flux over 7 Days, Unenhanced 0% GMO ([2]; Skin 5B, n = 2-5 cells): 17.4 ug/cm^2/24 h | Average Daily flux over 7 Days, Unenhanced 0% GMO ([2]; Skin 5C, n = 2-5 cells): 11.6 ug/cm^2/24 h | Average Daily flux over 7 Days, 0.03% GMO ([2]; All Skins): 33.0 ug/cm^2/24 h | Average Daily flux over 7 Days, 0.03% GMO ([2]; Skin 5A, n = 2-5 cells): 7.1 ug/cm^2/24 h | Average Daily flux over 7 Days, 0.03% GMO ([2]; Skin 5B, n = 2-5 cells): 69.5 ug/cm^2/24 h | Average Daily flux over 7 Days, 0.03% GMO ([2]; Skin 5C, n = 2-5 cells): 22.4 ug/cm^2/24 h | Average Daily flux over 7 Days, 0.06% GMO ([2]; All Skins): 35.6 ug/cm^2/24 h | Average Daily flux over 7 Days, 0.06% GMO ([2]; Skin 5A, n = 2-5 cells): 11.6 ug/cm^2/24 h | Average Daily flux over 7 Days, 0.06% GMO ([2]; Skin 5B, n = 2-5 cells): 74.9 ug/cm^2/24 h | Average Daily flux over 7 Days, 0.06% GMO ([2]; Skin 5C, n = 2-5 cells): 20.3 ug/cm^2/24 h | Average Daily flux over 7 Days, 0.12% GMO ([2]; All Skins): 41.8 Ug/cm^2/24 h | Average Daily flux over 7 Days, 0.12% GMO ([2]; Skin 5A, n = 2-5 cells): 16.8 Ug/cm^2/24 h | Average Daily flux over 7 Days, 0.12% GMO ([2]; Skin 5B, n = 2-5 cells): 85.2 Ug/cm^2/24 h | Average Daily flux over 7 Days, 0.12% GMO ([2]; Skin 5C, n = 2-5 cells): 23.6 Ug/cm^2/24 h | E = Enhancement Factor = Average Daily Flux from Enhanced Formulation/Average Daily Flux from Unenhanced Control ([2]; 0.03% GMO vs 0% GMO, All Skins): 2.34 ± 0.37 | E = Enhancement Factor = Average Daily Flux from Enhanced Formulation/Average Daily Flux from Unenhanced Control ([2]; 0.03% GMO vs 0% GMO, Skin 5A): 1.12 | E = Enhancement Factor = Average Daily Flux from Enhanced Formulation/Average Daily Flux from Unenhanced Control ([2]; 0.03% GMO vs 0% GMO, Skin 5B): 3.99 | E = Enhancement Factor = Average Daily Flux from Enhanced Formulation/Average Daily Flux from Unenhanced Control ([2]; 0.03% GMO vs 0% GMO, Skin 5C): 1.93 | E = Enhancement Factor = Average Daily Flux from Enhanced Formulation/Average Daily Flux from Unenhanced Control ([2]; 0.06% GMO vs 0% GMO, All Skins): 2.62 ± 0.43 | E = Enhancement Factor = Average Daily Flux from Enhanced Formulation/Average Daily Flux from Unenhanced Control ([2]; 0.06% GMO vs 0% GMO, Skin 5A): 1.81 | E = Enhancement Factor = Average Daily Flux from Enhanced Formulation/Average Daily Flux from Unenhanced Control ([2]; 0.06% GMO vs 0% GMO, Skin 5B): 4.30 | E = Enhancement Factor = Average Daily Flux from Enhanced Formulation/Average Daily Flux from Unenhanced Control ([2]; 0.06% GMO vs 0% GMO, Skin 5C): 1.74 | E = Enhancement Factor = Average Daily Flux from Enhanced Formulation/Average Daily Flux from Unenhanced Control ([2]; 0.12% GMO vs 0% GMO, All Skins): 3.18 ± .36 | E = Enhancement Factor = Average Daily Flux from Enhanced Formulation/Average Daily Flux from Unenhanced Control ([2]; 0.12% GMO vs 0% GMO, Skin 5A): 2.62 | E = Enhancement Factor = Average Daily Flux from Enhanced Formulation/Average Daily Flux from Unenhanced Control ([2]; 0.12% GMO vs 0% GMO, Skin 5B): 4.89 | E = Enhancement Factor = Average Daily Flux from Enhanced Formulation/Average Daily Flux from Unenhanced Control ([2]; 0.12% GMO vs 0% GMO, Skin 5C): 2.03 | bone loss [3]: prevent bone loss | bone loss [4]: prevent bone loss | total serum cholesterol [5]: decreased | effect on prostate [6]: did not affect prostate | uterine-stimulating effects [7]: without the uterine-stimulating effects
